In patent US5001064A, “Phosphatidylinositol 4-kinase” (Washington University, priority 1988, dated 1991):
“Also recorded” adds a separate entry of the source.

Assays:
Format in all cases: biochemical, bovine
PtdIns 4-kinase [1] = molecular target: T1, PtdIns 4-kinase (Bos taurus, UniProt A6QLN5); experiment: Specificity of PtdIns 4-kinase for a nucleotide phosphoryl donor ([3H]PtdIns as substrate); conditions: for utilization as phosphoryl donor (words): [3H]PtdIns as substrate; for activity at 150 µM: read-out: Relative activity with nucleotide donor
T1 construct: It constitutes the major PtdIns 4-kinase activity of bovine uteri; from tissue; host or cells: bovine uterus (acetone powder, purified over ammonium sulfate, Mono Q, S-Sepharose, Mono Q, Mono P and hydroxylapatite)
Method: (§1) PtdIns 4-kinase activity was assayed in 60 μl at 30° C. in 20 mM BisTris-HCl (pH 7.0), 10 mM MgCl2, 1.0% Triton X-100, 0.25 mg/ml phosphatidylinositol, and 150 μM ATP (1.25 μCi[-^32 P]ATP), unless otherwise noted. The reaction was terminated by the addition of 12 μl of cold HCl, 120 μl of cold methanol, 150 μl of chloroform, and 40 μl of H2 O. The extracted samples were centrifuged at 12,000 × g for 1 min. and the aqueous layer removed and discarded. When needed, the organic phase was washed with 40 μl of cold methanol and 40 μl of cold 1.0 N HCl, centrifuged at 12,000 × g, and the aqueous layer was removed. The organic phase was then dried under vacuum in a Savant speed-vac, resuspended in 40 μl of chloroform/methanol (2:1), and chromatographed on potassium oxalate-impregnated Silica Gel 60 thin layer chromatography plates (TLC). The solvent system used consisted of chloroform/methanol/ammonium hydroxide/water (51:39.6:3:8.4). For two-dimensional thin layer chromatography, the preceding solvent system was used for the first dimension, and chloroform/methanol/acetic acid/water (50:39:1:10) was used for the second dimension. Standards were visualized by exposing the TLC plate to iodine vapor. The reaction product, phosphatidylinositol 4-phosphate, was visualized by autoradiography, and the corresponding area of the TLC plate was scraped and quantitated by Cherenkov counting. […] For tests utilizing [^3 H]PtdIns, the corresponding areas of the TLC plates were scraped and the silica powder was suspended in a gel of Aquasol/H2 O (4:1) before counting. All assays (except column fractions) were done in duplicate or triplicate.

PtdIns 4-kinase [2] = molecular target: T1, PtdIns 4-kinase; experiment: Specificity of PtdIns 4-kinase for a lipid substrate; conditions: for Relative activity with lipid added: lipid 0.25 mg/ml, organic extractable label, background subtracted, PtdIns (soybean) = 100; for phosphorylation of lipid by the purified enzyme: standard assay buffer with the indicated lipid
Method: PtdIns 4-kinase activity was assayed in 60 μl at 30° C. in 20 mM BisTris-HCl (pH 7.0), 10 mM MgCl2, 1.0% Triton X-100, 0.25 mg/ml phosphatidylinositol, and 150 μM ATP (1.25 μCi[-^32 P]ATP), unless otherwise noted. The reaction was terminated by the addition of 12 μl of cold HCl, 120 μl of cold methanol, 150 μl of chloroform, and 40 μl of H2 O. The extracted samples were centrifuged at 12,000 × g for 1 min. and the aqueous layer removed and discarded. When needed, the organic phase was washed with 40 μl of cold methanol and 40 μl of cold 1.0 N HCl, centrifuged at 12,000 × g, and the aqueous layer was removed. The organic phase was then dried under vacuum in a Savant speed-vac, resuspended in 40 μl of chloroform/methanol (2:1), and chromatographed on potassium oxalate-impregnated Silica Gel 60 thin layer chromatography plates (TLC). The solvent system used consisted of chloroform/methanol/ammonium hydroxide/water (51:39.6:3:8.4). For two-dimensional thin layer chromatography, the preceding solvent system was used for the first dimension, and chloroform/methanol/acetic acid/water (50:39:1:10) was used for the second dimension. Standards were visualized by exposing the TLC plate to iodine vapor. The reaction product, phosphatidylinositol 4-phosphate, was visualized by autoradiography, and the corresponding area of the TLC plate was scraped and quantitated by Cherenkov counting. This assay was linear with respect to both protein concentration and time. For tests utilizing [^3 H]PtdIns, the corresponding areas of the TLC plates were scraped and the silica powder was suspended in a gel of Aquasol/H2 O (4:1) before counting. All assays (except column fractions) were done in duplicate or triplicate.
The specificity of PtdIns 4-kinase for lipid substrates was also examined using standard assay buffer containing […] of the indicated lipid. After extraction the organic phase was washed three times, dried in vacuo, and the organic extractable label was quantitated. Control reactions (no lipid) established background levels which were then subtracted from the experimentally derived values (Table III). […] The sensitivity of the above technique was limited and appeared to show little or no activity with lyso-PtdIns; however, subsequent TLC of these reactions established that the enzyme would phosphorylate lyso-PtdIns about 10% as well as soybean Ptdlns. […] Except for lyso-Ptdlns, the results presented in Table III were confirmed by thin layer chromatography.

PtdIns 4-kinase [3] = molecular target: T1, PtdIns 4-kinase; experiment: Effect of potential inhibitors on PtdIns 4-kinase activity; conditions: for effectiveness as inhibitor / Relative activity with potential inhibitor / relative activity at 1000 µM: PtdIns 0.1 mg/ml; for effectiveness as inhibitor: soluble compounds approximately 10-fold above the PtdIns concentration; for inhibition: approximately 5-fold molar excess over PtdIns (0.1 mg/ml); for relative activity at 1000 µM: read-out: Relative activity with potential inhibitor, heading: Relative activity with potential inhibitor
Method: as §1
Various PtdIns-related compounds were tested as possible inhibitors of this purified PtdIns 4-kinase. A concentration of PtdIns of 0.1 mg/ml was used in these tests to accentuate possible competitive inhibition by potential inhibitors (Table IV).

[4] = nucleotide donor 150 μM, ATP = 100

T1 sequence (A6QLN5 1-479): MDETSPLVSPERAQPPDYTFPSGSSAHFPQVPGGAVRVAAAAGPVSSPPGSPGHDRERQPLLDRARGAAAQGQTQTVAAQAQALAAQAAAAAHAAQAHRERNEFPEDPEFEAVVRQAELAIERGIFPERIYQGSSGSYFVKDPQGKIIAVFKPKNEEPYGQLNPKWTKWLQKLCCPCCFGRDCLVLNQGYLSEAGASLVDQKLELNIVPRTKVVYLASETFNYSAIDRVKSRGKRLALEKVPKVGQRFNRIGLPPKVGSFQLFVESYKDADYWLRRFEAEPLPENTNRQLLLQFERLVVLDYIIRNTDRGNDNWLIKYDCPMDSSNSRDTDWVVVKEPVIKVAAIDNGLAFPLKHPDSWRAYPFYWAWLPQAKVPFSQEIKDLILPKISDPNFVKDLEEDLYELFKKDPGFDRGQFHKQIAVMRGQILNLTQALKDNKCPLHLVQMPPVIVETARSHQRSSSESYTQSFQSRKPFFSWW

## Nc1nc2c(ncn2[C@@H]2O[C@H](COP(=O)(O)OP(=O)(O)OP(=O)(O)O)[C@@H](O)[C@H]2O)c(=O)[nH]1 [GTP]
PtdIns 4-kinase [1]
  utilization as phosphoryl donor (words): No PtdIns-4-P was observed; also recorded: No PtdIns-4-P 5-kinase activity was present
PtdIns 4-kinase [1]; [4]
  activity at 150 µM: 5%

## O=c1ccn([C@@H]2O[C@H](COP(=O)(O)OP(=O)(O)OP(=O)(O)O)[C@@H](O)[C@H]2O)c(=O)[nH]1 [UTP]
PtdIns 4-kinase [1]
  utilization as phosphoryl donor (words): A small amount of PtdIns-4-P was observed
PtdIns 4-kinase [1]; [4]
  activity at 150 µM: 18%

## L-α-phosphatidyl-L-serine [Phosphatidylserine]
PtdIns 4-kinase [2]
  Relative activity with lipid added: 1%
  phosphorylation of lipid by the purified enzyme: no phosphorylation

## Phosphatidylinositol [PtdIns (bovine)]
PtdIns 4-kinase [2]
  Relative activity with lipid added: 110%
  phosphorylation of lipid by the purified enzyme: able to phosphorylate

## CCCCCCCCCCCCCCCC(=O)OC[C@H](COP(=O)(O)O[C@H]1[C@H](O)[C@@H](O)[C@H](OP(=O)(O)O)[C@@H](OP(=O)(O)O)[C@H]1O)OC(=O)CCCCCCCCCCCCCCC [PtdIns-4,5-P2, phosphatidylinositol 4,5-diphosphate]
PtdIns 4-kinase [3]
  effectiveness as inhibitor: Neither PtdIns-4-P or PtdIns-4,5-P2 were effective inhibitors
  inhibition: 59%
PtdIns 4-kinase [3]; inhibitor 0.02 mg/ml
  Relative activity with potential inhibitor: 109%
PtdIns 4-kinase [3]; inhibitor 0.10 mg/ml
  Relative activity with potential inhibitor: 101%
PtdIns 4-kinase [3]; inhibitor 0.50 mg/ml
  Relative activity with potential inhibitor: 41%
PtdIns 4-kinase [2]
  Relative activity with lipid added: 0%
  phosphorylation of lipid by the purified enzyme: nor would it phosphorylate

## L-α-phosphatidylethanolamine
PtdIns 4-kinase [2]
  Relative activity with lipid added: 0%
  phosphorylation of lipid by the purified enzyme: no phosphorylation

## CCCCC/C=C\C/C=C\C/C=C\C/C=C\CCCC(=O)O[C@@H](CO)COC(=O)CCCCCCCCCCCCCCCCC [1-Stearoyl-2-arachidonoyl-sn-glycerol]
PtdIns 4-kinase [2]
  Relative activity with lipid added: 0%
  phosphorylation of lipid by the purified enzyme: lacked diacylglycerol kinase activity

## O=P(O)(OCC(O)CO)O[C@@H]1[C@H](O)[C@H](O)[C@@H](O)[C@H](O)[C@H]1O (stereo partly drawn) [Glycerophospho-D-myo-inositol]
PtdIns 4-kinase [3]
  effectiveness as inhibitor: ineffective as inhibitors
PtdIns 4-kinase [3]; inhibitor 1.0 mM
  relative activity at 1000 µM: 86%

## phosphatidylinositol 4-phosphate [PtdIns-4-P]
PtdIns 4-kinase [3]
  effectiveness as inhibitor: Neither PtdIns-4-P or PtdIns-4,5-P2 were effective inhibitors
  inhibition: 42%
PtdIns 4-kinase [3]; inhibitor 0.02 mg/ml
  Relative activity with potential inhibitor: 99%
PtdIns 4-kinase [3]; inhibitor 0.10 mg/ml
  Relative activity with potential inhibitor: 105%
PtdIns 4-kinase [3]; inhibitor 0.50 mg/ml
  Relative activity with potential inhibitor: 58%
PtdIns 4-kinase [2]
  Relative activity with lipid added: 0%
  phosphorylation of lipid by the purified enzyme: lacked detectable PtdIns-4-P 5-kinase activity

## O=P(O)(O)OC1[C@H](O)[C@H](O)C(O)[C@H](O)[C@H]1O (stereo partly drawn) [Ins-1-P]
PtdIns 4-kinase [3]
  effectiveness as inhibitor: ineffective as inhibitors
PtdIns 4-kinase [3]; inhibitor 1.0 mM
  Relative activity with potential inhibitor: 89%

## Nc1ncnc2c1ncn2[C@H]1C[C@H](O)[C@@H](COP(=O)(O)OP(=O)(O)OP(=O)(O)O)O1 [dATP, 2'-deoxy-ATP]
PtdIns 4-kinase [1]; listed as 2'-deoxy-ATP
  utilization as phosphoryl donor (words): utilized
PtdIns 4-kinase [1]; listed as 2-deoxy-ATP
  utilization as phosphoryl donor (words): utilized; also recorded: will utilize
PtdIns 4-kinase [1]; [4]
  activity at 150 µM: 104%

## O=c1[nH]cnc2c1ncn2[C@@H]1O[C@H](COP(=O)(O)OP(=O)(O)OP(=O)(O)O)[C@@H](O)[C@H]1O [ITP]
PtdIns 4-kinase [1]
  utilization as phosphoryl donor (words): No PtdIns-4-P was observed; also recorded: No PtdIns-4-P 5-kinase activity was present
PtdIns 4-kinase [1]; [4]
  activity at 150 µM: 11%

## galactocerebrosides (mixed)
PtdIns 4-kinase [2]
  Relative activity with lipid added: 0%
  phosphorylation of lipid by the purified enzyme: would not phosphorylate

## Nc1ncnc2c1ncn2[C@H]1CC[C@@H](COP(=O)(O)OP(=O)(O)OP(=O)(O)O)O1 [ddATP, 2,3-Dideoxy-ATP]
PtdIns 4-kinase [1]; listed as 2,3-Dideoxy-ATP
  utilization as phosphoryl donor (words): partially effective
PtdIns 4-kinase [1]; listed as 2,3-dideoxy-ATP
  utilization as phosphoryl donor (words): to a lesser degree will utilize
PtdIns 4-kinase [1]; [4]
  activity at 150 µM: 39%

## Nc1ncnc2c1ncn2[C@@H]1O[C@H](COP(=O)(O)OP(=O)(O)O)[C@@H](O)[C@H]1O [ADP]
PtdIns 4-kinase [1]
  utilization as phosphoryl donor (words): No PtdIns-4-P was observed; also recorded: No PtdIns-4-P 5-kinase activity was present
PtdIns 4-kinase [1]; [4]
  activity at 150 µM: 12%

## L-α-phosphatidylcholine
PtdIns 4-kinase [2]
  Relative activity with lipid added: 0%
  phosphorylation of lipid by the purified enzyme: no phosphorylation

## Cc1cn([C@H]2C[C@H](O)[C@@H](COP(=O)(O)OP(=O)(O)OP(=O)(O)O)O2)c(=O)[nH]c1=O [TTP]
PtdIns 4-kinase [1]; [4]
  Relative activity with nucleotide donor: 3

## glucocerebrosides
PtdIns 4-kinase [2]
  Relative activity with lipid added: 0%
  phosphorylation of lipid by the purified enzyme: would not phosphorylate

## L-α-lysophosphatidylinositol [Lyso-PtdIns]
PtdIns 4-kinase [2]; TLC of the reactions
  phosphorylation relative to soybean PtdIns, by subsequent TLC: about 10%
PtdIns 4-kinase [2]
  Relative activity with lipid added: 0%

## O=P(O)(O)O[C@H]1[C@H](O)[C@@H](O)[C@H](OP(=O)(O)O)[C@@H](O)[C@H]1O [Ins-1,4-P2]
PtdIns 4-kinase [3]
  effectiveness as inhibitor: ineffective as inhibitors
PtdIns 4-kinase [3]; inhibitor 1.0 mM
  Relative activity with potential inhibitor: 98%

## Phosphatidylinositol [PtdIns (soybean)]
PtdIns 4-kinase [2]
  Relative activity with lipid added: 100%
  phosphorylation of lipid by the purified enzyme: able to phosphorylate

## OC1C(O)C(O)C2(CO2)C(O)C1O (stereo not drawn) [Inositol 2,2'-anhydro-2-C-hydroxymethyl]
PtdIns 4-kinase [3]
  effectiveness as inhibitor: ineffective as inhibitors
PtdIns 4-kinase [3]; inhibitor 1.0 mM
  relative activity at 1000 µM: 118%

## Nc1ccn([C@@H]2O[C@H](COP(=O)(O)OP(=O)(O)OP(=O)(O)O)[C@@H](O)[C@H]2O)c(=O)n1 [CTP]
PtdIns 4-kinase [1]
  utilization as phosphoryl donor (words): No PtdIns-4-P was observed; also recorded: No PtdIns-4-P 5-kinase activity was present
PtdIns 4-kinase [1]; [4]
  activity at 150 µM: 10%
